This is an account of results in article PMC9360399, “Alterations to the broad-spectrum formin inhibitor SMIFH2 modulate potency but not specificity” (Scientific Reports, 2022).

Data set [1] concerns formin. Further details: method as in PMID 33589498. As to conditions: read-out: IC50 formin/mediated actin interactions; cited from earlier work.
The target in data set [2] is T1, FMNL3 (Homo sapiens, UniProt Q8IVF7).
T1 construct: UniProt Q8IVF7-1, aa 481-1028; 6-histidine tag (N); made in house; host or cells: ROSETTA-DE3 E. coli
Put plainly: pyrene-actin polymerization assay, FMNL3-FFC. Format: biochemical. On the procedure: (§1) Several SMIFH2 analogs are known to retain or lose inhibitory activity against mDia1[18]. We sought to expand this dataset to more extensively characterize structure–activity relationships in the SMIFH2/formin complex. All 17 analogs shown in Fig. 4 were synthesized according to the scheme described in the Experimental Procedures (Fig. 6) and characterized by proton NMR (Fig. S8). Each inhibitor was tested for potential interaction with actin in the absence of formin (Figs. S3, S4). […] This panel of 18 inhibitors was tested against five formin FFC fragments (DIAPH1, DIAPH2, INF2, FMNL3, and FMN2), and the IC50 values were measured (Fig. 4 and Table 1). One notable trend in this dataset is that the lack of specificity, noted above for SMIFH2 (Fig. 3), holds for its analogs: no modifications made to SMIFH2 led to a selective inhibitor, at least among the five formins that were tested.
(§2) Figure 4 Structure activity data for SMIFH2 and 17 analogs tested against five human formins. Each individual data point indicates an IC50 value from a titration of inhibitor in the pyrene-actin assembly assay. Conditions: 2 µM actin (5% pyrene-labeled), 4 µM S. pombe profilin, formin (5 nM DIAPH1-FFC, 5 nM DIAPH2-FFC, 5 nM INF2-FFC, 20–37.5 nM FMN2-FFC, 20 nM FMNL3-FFC), inhibitor with a fixed volume of DMSO. […] Because we cannot reliably measure IC50 values above 40 µM, those points are indicated at the > 40 µM line.
(§3) Assays were carried out as described. Rabbit skeletal muscle actin (5% pyrene labeled) was incubated for 2 min at 25 °C with 200 μM EGTA and 50 μM MgCl2 to convert Ca-actin to Mg-actin. When included in the experiment, a 2:1 molar ratio of profilin was incubated with actin for 2 min at 25 °C before conversion to Mg-actin. Polymerization was initiated by adding polymerization buffer (KMEH, final concentration: 10 mM HEPES, pH 7.0, 1 mM EGTA, 50 mM KCl, 1 mM MgCl2). Prior to mixing KMEH with actin, formins and then the inhibitor in DMSO or DMF was added at ≤ 1% of the total volume. Finally, this mixture was rapidly mixed with Mg-actin, with approximately 10–20 s dead time prior to measurement. Fluorescence was monitored every 15 s using a TECAN F200 Pro with λex = 360 ± 17 nm and λem = 415 ± 10 nm. The same volume of organic solvent (DMSO or DMF) was added to each well regardless of inhibitor concentration.

For data set [3], the target named is DIAPH1 (Homo sapiens, UniProt O60610). Description: pyrene-actin polymerization assay, DIAPH1-FFC. Format: biochemical. On the procedure: as §1, §2, §3
The target in data set [4] is T2, FMN2 (Homo sapiens, UniProt Q9NZ56).
T2 construct: UniProt Q9NZ56-1, aa 1192-1722; 6-histidine tag (N); made in house; host or cells: ROSETTA-DE3 E. coli
Put plainly: pyrene-actin polymerization assay, FMN2-FFC. Format: biochemical. The method, then:
as §1, §2, §3

Data set [5] has as its system Drosophila myosin 5. Further details: method as in PMID 33589498. As to conditions: read-out: IC50 actin-induced ATPase activity of Drosophila myosin 5; cited from earlier work.
Data set [6] has as its system mouse Dia1. Also noted: method as in PMID 19942139. As to conditions: reported value; cited from earlier work.
For data set [7], the target named is T3, INF2 (Homo sapiens, UniProt Q27J81).
T3 construct: UniProt Q27J81-1, aa 469–1249; 6-histidine tag (N); made in house; host or cells: ROSETTA-DE3 E. coli
Description: pyrene-actin polymerization assay, INF2-FFC. Format: biochemical. On the procedure: as §1, §2, §3

In data set [8] the target is T4, DIAPH2 (Homo sapiens, UniProt O60879).
T4 construct: UniProt O60879-2, aa 553–1096; 6-histidine tag (N); made in house; host or cells: ROSETTA-DE3 E. coli
Put plainly: pyrene-actin polymerization assay, DIAPH2-FFC. It counts as biochemical. On the procedure:
as §1, §2, §3

In data set [9] the test system is human formins. Put plainly: pyrene-actin polymerization assay, panel of human formin FFC fragments. As to conditions: for inhibitory activity against formins tested (in words): five formin FFC fragments (DIAPH1, DIAPH2, INF2, FMNL3, FMN2); for fold change in potency (IC50) compared with SMIFH2 (1): depending on the formin. It counts as biochemical. The method, then: Figure 3 SMIFH2 has broad activity across the human formins. For each titration, pyrene fluorescence was monitored for 2 μM actin (5% pyrene-labeled)/ 4 μM S. pombe profilin. […] Increasing concentration of SMIFH2 is indicated by blue traces, with the µM concentration labeled to the right of each plot. The volume of DMSO added was the same for all traces, regardless of SMIFH2 concentration.
To characterize the specificity of SMIFH2, we titrated the inhibitor against each purified formin, controlling for the volume of DMSO for all polymerization reactions (Fig. 3, as indicated by blue traces).
as §1, §3

A short description of data set [10]: solubility in DMSO. It counts as physicochemical. As to conditions: had to be dissolved in DMF for assays.

The structures appear in SMILES notation. “Also recorded” adds a separate entry of the source.

T3 sequence (Q27J81 469-1249): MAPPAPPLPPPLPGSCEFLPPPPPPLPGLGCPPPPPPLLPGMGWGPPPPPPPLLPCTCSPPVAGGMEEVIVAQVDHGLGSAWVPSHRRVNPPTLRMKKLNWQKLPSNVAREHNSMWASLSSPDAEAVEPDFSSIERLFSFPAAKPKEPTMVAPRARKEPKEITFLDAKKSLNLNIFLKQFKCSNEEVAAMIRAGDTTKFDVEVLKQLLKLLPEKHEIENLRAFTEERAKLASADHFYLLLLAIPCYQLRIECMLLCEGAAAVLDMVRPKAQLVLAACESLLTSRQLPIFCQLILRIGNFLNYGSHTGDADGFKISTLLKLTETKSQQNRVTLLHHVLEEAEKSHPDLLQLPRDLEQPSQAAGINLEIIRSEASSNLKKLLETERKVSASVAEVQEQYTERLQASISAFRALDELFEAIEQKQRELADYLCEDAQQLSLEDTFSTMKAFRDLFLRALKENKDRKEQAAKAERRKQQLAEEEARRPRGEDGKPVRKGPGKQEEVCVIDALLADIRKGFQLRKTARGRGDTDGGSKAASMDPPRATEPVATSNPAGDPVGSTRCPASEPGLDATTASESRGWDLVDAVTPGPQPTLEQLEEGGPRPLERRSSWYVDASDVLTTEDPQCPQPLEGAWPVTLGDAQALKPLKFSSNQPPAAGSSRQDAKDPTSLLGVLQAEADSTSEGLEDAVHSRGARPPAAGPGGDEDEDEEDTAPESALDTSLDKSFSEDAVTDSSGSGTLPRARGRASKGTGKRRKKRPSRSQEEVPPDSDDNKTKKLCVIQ
T2 sequence (Q9NZ56 1192-1722): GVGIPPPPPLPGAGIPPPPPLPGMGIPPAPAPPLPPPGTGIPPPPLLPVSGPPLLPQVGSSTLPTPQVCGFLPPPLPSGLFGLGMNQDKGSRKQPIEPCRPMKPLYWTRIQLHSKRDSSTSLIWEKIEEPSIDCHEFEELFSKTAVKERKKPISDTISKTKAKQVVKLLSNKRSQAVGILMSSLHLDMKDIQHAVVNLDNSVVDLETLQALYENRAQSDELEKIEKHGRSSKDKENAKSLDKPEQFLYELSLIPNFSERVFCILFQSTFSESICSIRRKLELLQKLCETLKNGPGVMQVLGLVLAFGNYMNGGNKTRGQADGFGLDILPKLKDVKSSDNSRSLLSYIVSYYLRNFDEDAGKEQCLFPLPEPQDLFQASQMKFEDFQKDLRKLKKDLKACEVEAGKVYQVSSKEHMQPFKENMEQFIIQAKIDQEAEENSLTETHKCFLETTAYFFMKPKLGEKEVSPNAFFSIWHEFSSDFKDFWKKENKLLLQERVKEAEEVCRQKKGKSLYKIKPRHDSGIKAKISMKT
T1 sequence (Q8IVF7 481-1028): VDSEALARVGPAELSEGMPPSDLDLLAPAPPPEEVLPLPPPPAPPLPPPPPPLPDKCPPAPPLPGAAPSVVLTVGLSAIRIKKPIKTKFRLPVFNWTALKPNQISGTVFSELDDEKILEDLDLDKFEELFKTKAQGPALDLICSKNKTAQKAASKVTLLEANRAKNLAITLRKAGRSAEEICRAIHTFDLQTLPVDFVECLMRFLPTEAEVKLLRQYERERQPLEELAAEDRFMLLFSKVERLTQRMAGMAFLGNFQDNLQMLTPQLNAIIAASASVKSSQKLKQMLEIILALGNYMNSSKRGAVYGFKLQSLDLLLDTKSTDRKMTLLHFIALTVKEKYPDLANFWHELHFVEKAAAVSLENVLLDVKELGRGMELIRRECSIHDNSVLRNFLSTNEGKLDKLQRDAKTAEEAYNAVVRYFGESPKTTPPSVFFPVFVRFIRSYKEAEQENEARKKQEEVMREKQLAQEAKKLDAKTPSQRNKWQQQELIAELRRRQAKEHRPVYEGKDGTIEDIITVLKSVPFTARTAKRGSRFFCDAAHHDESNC
Sequence of DIAPH1 (O60610 769-1222 limits assumed): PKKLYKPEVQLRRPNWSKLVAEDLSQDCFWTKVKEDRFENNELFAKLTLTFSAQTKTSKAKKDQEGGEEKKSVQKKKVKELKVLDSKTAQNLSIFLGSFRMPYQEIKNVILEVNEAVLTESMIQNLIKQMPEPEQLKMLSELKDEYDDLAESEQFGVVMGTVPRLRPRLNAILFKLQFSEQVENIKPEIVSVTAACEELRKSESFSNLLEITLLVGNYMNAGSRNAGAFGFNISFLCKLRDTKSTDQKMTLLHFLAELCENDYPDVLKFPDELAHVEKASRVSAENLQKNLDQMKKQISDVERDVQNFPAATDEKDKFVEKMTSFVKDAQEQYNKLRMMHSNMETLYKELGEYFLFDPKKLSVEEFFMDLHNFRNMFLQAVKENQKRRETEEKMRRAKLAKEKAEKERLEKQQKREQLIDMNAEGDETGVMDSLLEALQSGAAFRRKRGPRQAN
T4 sequence (O60879 553-1096 isoform O60879-2): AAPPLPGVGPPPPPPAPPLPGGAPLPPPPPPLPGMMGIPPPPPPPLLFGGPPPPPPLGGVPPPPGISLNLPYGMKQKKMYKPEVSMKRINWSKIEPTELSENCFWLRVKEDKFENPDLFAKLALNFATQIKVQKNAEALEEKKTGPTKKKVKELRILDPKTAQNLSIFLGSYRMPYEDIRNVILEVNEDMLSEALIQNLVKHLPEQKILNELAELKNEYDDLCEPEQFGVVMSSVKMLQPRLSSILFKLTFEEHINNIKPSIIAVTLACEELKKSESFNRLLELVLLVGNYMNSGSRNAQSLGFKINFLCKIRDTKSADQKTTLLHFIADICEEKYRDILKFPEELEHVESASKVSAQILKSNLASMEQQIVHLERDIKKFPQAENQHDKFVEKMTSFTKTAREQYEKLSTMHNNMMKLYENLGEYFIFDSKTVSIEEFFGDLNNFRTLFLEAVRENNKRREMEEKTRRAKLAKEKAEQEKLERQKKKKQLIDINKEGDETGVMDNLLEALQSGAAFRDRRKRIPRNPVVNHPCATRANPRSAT

Turning to `O=C1NC(=S)N(c2cccc(Br)c2)C(=O)C1=Cc1ccco1` [Compound 1, 1-(3-bromophenyl)-5-(furan-2-ylmethylene)-2-thioxodihydropyrimidine-4,6(1H,5H)-dione, reference compound], the IC50 was 10 to 20 µM in data set [1]; 21 ± 7 µM in data set [2]; 30 ± 10 µM in [3]; 10 ± 3 µM in data set [4]; roughly 2 µM in data set [5]; 15 µM in [6]. The IC50 in data set [7] is 10 ± 5 µM; in data set [8], 6 ± 3 µM.
For `CN1C(=O)C(=Cc2ccco2)C(=O)N(c2cccc(Br)c2)C1=S` [Compound 2], the IC50 in data set [2] came out at 4 ± 1 µM; in data set [3], 13 ± 3 µM; in data set [4], 14 ± 2 µM; in [7], 5 ± 2 µM; in data set [8] it was 5 ± 5 µM. In addition, the “inhibitory activity against formins tested (in words)” value (“inhibitory activity” for short) in data set [9] is listed as “well tolerated”.
Take `CCN1C(=O)C(=Cc2ccco2)C(=O)N(c2cccc(Br)c2)C1=S` [Compound 3]: the IC50 was 40 µM in data set [2]; greater than 40 µM in data set [3]; greater than 40 µM in data set [4]; greater than 40 µM in data set [7]; greater than 40 µM in data set [8].
Turning to `O=C1C(=Cc2ccco2)C(=O)N(c2cccc(Br)c2)C(=S)N1c1ccccc1` [Compound 4], the IC50 in [2] came out at 4 ± 1 µM; in [3], 11 ± 7 µM; in data set [4], 9 ± 1 µM; in data set [7] it was 4 ± 1 µM; in [8], 2.3 ± 1.7 µM. In addition, the “fold change in potency (IC50) compared with SMIFH2 (1)” value in data set [9] was 3–fourfold more potent. Besides, the “inhibitory activity” value in data set [9] is on record as “well tolerated”.
As to `O=C1NC(=O)N(c2cccc(Br)c2)C(=O)C1=Cc1ccco1` [Compound 5], the IC50 in data set [2], in [3], in data set [4], in data set [7] and in [8] was greater than 40 µM throughout. Also, the “inhibitory activity” value in [9] is given as “complete loss of inhibitory activity”.
On to `O=C1NC(=S)N(c2cccc(Br)c2)C(=O)C1=Cc1ccc[nH]1` [Compound 6], for which the IC50 in data set [2], in data set [3], in data set [4], in [7] and in data set [8] was greater than 40 µM throughout. The “inhibitory activity” value in data set [9] was “no detectable inhibitory effect”.
In the case of `O=C1NC(=S)N(c2cccc(Br)c2)C(=O)C1=Cc1cccs1` [Compound 7], the IC50 in [2], in data set [3], in data set [7] and in data set [8] was greater than 40 µM in each case. The “inhibitory activity” value in data set [9] is “no detectable inhibitory effect”.
Turning to `O=C1NC(=S)N(c2ccc(Br)cc2)C(=O)C1=Cc1ccco1` [Compound 8], the IC50 in data set [2] was 6 ± 3 µM; in data set [3] it was 8 ± 3 µM; in [4], 8 ± 4 µM; in data set [7] it was 7 ± 2 µM; in [8] it was 3 ± 1 µM. The “inhibitory activity” value in data set [9] is on record as “maintained or slightly enhanced inhibitory activity”.
For the molecule `O=C1NC(=S)N(c2ccccc2)C(=O)C1=Cc1ccco1` [Compound 9], the solubility entry in data set [10] is reported as “low solubility; also recorded: poorly soluble in DMSO”. For the same molecule, the IC50 in data set [2] is greater than 40 µM; in [3], greater than 40 µM; in [7], 30 µM; in data set [8], 40 µM. For the same molecule, the “inhibitory activity” value in data set [9] is “measurable but weak to minimal activity”.
Consider `COc1ccc(N2C(=O)C(=Cc3ccco3)C(=O)NC2=S)cc1` [Compound 10], for which the IC50 was found to be 17 ± 6 µM in [2]; 27 ± 12 µM in data set [3]; 23 ± 4 µM in data set [4]; 37 ± 16 µM in data set [7]; 12 ± 8 µM in data set [8]. In [9], the “inhibitory activity” value is recorded as “reduced activity”.
Take `COc1ccc(N2C(=O)C(=Cc3ccc(Br)o3)C(=O)NC2=S)cc1` [Compound 11]: the IC50 in data set [2] was 7 ± 1 µM; in [3], 8 ± 2 µM; in [4] it was 10 ± 1 µM; in [7], 3 ± 2 µM; in data set [8], 2 ± 1.4 µM.
`COc1ccc(N2C(=O)C(=Cc3ccc(Cl)o3)C(=O)NC2=S)cc1` [Compound 12]: the IC50 was determined as 3 ± 2 µM in [2]; 4 ± 1 µM in [3]; 5 ± 3 µM in data set [4]; 2 ± 1 µM in data set [7]; 1 ± 0.2 µM in [8]. In data set [9], the “fold change in potency (IC50) compared with SMIFH2 (1)” value is “two–ninefold”. Besides, the “inhibitory activity” value in data set [9] is on record as “most potent inhibitor”.
In the case of `COc1ccc(N2C(=O)C(=Cc3cc(Br)co3)C(=O)NC2=S)cc1` [Compound 13], the IC50 was found to be 4 ± 1 µM in data set [2], 6 ± 2 µM in data set [7] and 3.3 ± 0.2 µM in data set [8].
In the case of `O=C1NC(=S)N(c2ccc(Br)cc2)C(=O)C1=Cc1ccc(Cl)o1` [Compound 14], the IC50 in data set [2] amounted to 10 µM; in data set [3], 14 ± 2 µM; in data set [4] it was 15 µM; in data set [7], 8 ± 1 µM; in data set [8], 4 ± 1 µM.
Regarding `O=C1NC(=S)N(c2cccc(Br)c2)C(=O)C1=Cc1ccc(Cl)o1` [Compound 15], the IC50 in data set [2] was 7 ± 1 µM; in [3], 12 ± 6 µM; in data set [4], 11 ± 4 µM; in [7] it was 4 ± 1 µM; in data set [8] it was 4 ± 1 µM. Besides, the “inhibitory activity” value in data set [9] is “well tolerated”.
Consider `O=C1NC(=S)N(c2cccc(Br)c2)C(=O)C1=Cc1ccc(Br)o1` [Compound 16], for which the IC50 in data set [2] stood at 14 ± 5 µM; in [3] it was 30 ± 10 µM; in data set [4], 25 ± 5 µM; in data set [7], 7 ± 3 µM; in data set [8], 9 ± 1 µM. For the same molecule, the “inhibitory activity” value in data set [9] is listed as “well tolerated”.
Take `Cc1ccc(C=C2C(=O)NC(=S)N(c3cccc(Br)c3)C2=O)o1` [Compound 17]: the IC50 in data set [2], in data set [3], in data set [4], in data set [7] and in [8] was greater than 40 µM throughout. In addition, the “inhibitory activity” value in data set [9] is given as “abolished activity”.
With `O=C1NC(=S)N(c2cccc(Br)c2)C(=O)/C1=C/C=C/c1ccco1` [Compound 18], the “inhibitory activity” value in [9] is listed as “modest activity”. For the same molecule, the IC50 in [7] was greater than 40 µM; in [8], 20 µM.
